Test results: the NIST ThermoML archive (doi:10.1016/j.tca.2018.11.010)
Numbers after ± are expanded uncertainties.

Assay: wn = mass fraction of the nth substance listed
Details: 298 K; 100 kPa; Liquid; Laser flash apparatus; w1 = 0.9

thermal conductivity: 0.2513 ± 0.0057 W/m/K
SMILES: CCCCCCCC/C=C\CCCCCCCC(=O)O [(Z)-9-octadecenoic acid] + CCCCCCCCCCCCCC(=O)O
